Source: ChEMBL document CHEMBL1145944, “Synthesis and biological evaluation of 3-(4-substituted-phenyl)-N-hydroxy-2-propenamides, a new class of histone deacetylase inhibitors” (J Med Chem, 2003)

How the values were obtained:
Format in all cases: functional, cell-based
A549 = test: Compound was tested for antiproliferative activity against human A549 cancer cell lines using MTT assay
MKN-45 = test: Compound was tested for antiproliferative activity against human MKN45 cancer cell lines
SK-BR-3 = test: Compound was tested for antiproliferative activity against human SK-BR-3 cancer cell lines

| IC50 (A549) [µM] | IC50 (MKN-45) [µM] | IC50 (SK-BR-3) [µM] | Compound |
| --- | --- | --- | --- |
| 1.65 | 2.94 | 0.27 | O=C(/C=C/c1ccc(CNC(=O)c2ccc(N3CCN(Cc4cccnc4)CC3)cc2)cc1)NO |
| 12 | 38.6 | 3.19 | O=C(/C=C/c1ccc(CNC(=O)c2ccc(N3CCN(Cc4ccccn4)CC3)cc2)cc1)NO |
| 3.02 | 56.1 | 1.72 | O=C(/C=C/c1ccc(CNC(=O)c2ccc(N3CCN(Cc4ccncc4)CC3)cc2)cc1)NO |
| 0.84 | 1.07 | 0.59 | O=C(/C=C/C#Cc1ccc(NS(=O)(=O)c2ccccc2)cc1)NO [OXAMFLATIN] |
